The supplement of paper PMC10307832

Legend:
Test in all cases: relative viability (nuclei count vs DMSO), 5 days (fraction); higher = more cells survive
Ricolinostat + Lapatinib = compound: O=C(CCCCCCNC(=O)c1cnc(N(c2ccccc2)c2ccccc2)nc1)NO [Ricolinostat] + CS(=O)(=O)CCNCc1ccc(-c2ccc3ncnc(Nc4ccc(OCc5cccc(F)c5)c(Cl)c4)c3c2)o1 [Lapatinib] (partner 2 µM)
Summary of the method: (§1)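 Lung cancer cell lines were seeded in 1536-well plates and dosed by pin tool the next day, with either a single drug or a fixed anchor-drug dose combined with five library-drug doses (not always all listed) spaced in √10 steps. Five days later, one step fixed the cells and stained their nuclei (final 0.05% Triton X-100, 1% formaldehyde, 1 ug/ml Hoechst), and nuclei were counted on 4× images. Relative viability is the nuclei count in treated wells divided by the count in vehicle wells, and each value is the median of duplicate plates.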

Ricolinostat + Foretinib = compound: O=C(CCCCCCNC(=O)c1cnc(N(c2ccccc2)c2ccccc2)nc1)NO [Ricolinostat] + COc1cc2c(Oc3ccc(NC(=O)C4(C(=O)Nc5ccc(F)cc5)CC4)cc3F)ccnc2cc1OCCCN1CCOCC1 [Foretinib] (partner 0.25 µM)
Summary of the method: as §1

[1] = compound: O=C(CCCCCCNC(=O)c1cnc(N(c2ccccc2)c2ccccc2)nc1)NO [Ricolinostat] + C[C@@H](Oc1cc(-c2cnn(C3CCNCC3)c2)cnc1N)c1c(Cl)ccc(F)c1Cl [Crizotinib] (partner 1 µM)
Summary of the method: as §1

TGX 221 + Bortezomib = compound: CC1=CN2C(=O)C=C(N=C2C(=C1)C(C)NC3=CC=CC=C3)N4CCOCC4 [TGX 221] + CC(C)C[C@H](NC(=O)[C@H](Cc1ccccc1)NC(=O)c1cnccn1)B(O)O [Bortezomib] (partner 0.002 µM)
Summary of the method: as §1

Cell Line | relative viability (Ricolinostat + Lapatinib; first compound 0.08 µM) | relative viability (Ricolinostat + Lapatinib; first compound 0.253 µM) | relative viability (Ricolinostat + Lapatinib; first compound 0.8 µM) | relative viability (Ricolinostat + Lapatinib; first compound 2.53 µM) | relative viability (Ricolinostat + Foretinib; first compound 0.08 µM) | relative viability (Ricolinostat + Foretinib; first compound 0.253 µM) | relative viability (Ricolinostat + Foretinib; first compound 0.8 µM) | relative viability (Ricolinostat + Foretinib; first compound 2.53 µM) | relative viability ([1]; first compound 0.08 µM) | relative viability ([1]; first compound 0.253 µM) | relative viability ([1]; first compound 0.8 µM) | relative viability ([1]; first compound 2.53 µM) | relative viability (TGX 221 + Bortezomib; first compound 0.08 µM) | relative viability (TGX 221 + Bortezomib; first compound 0.253 µM) | relative viability (TGX 221 + Bortezomib; first compound 0.8 µM) | relative viability (TGX 221 + Bortezomib; first compound 2.53 µM) | relative viability (TGX 221 + Bortezomib; first compound 8 µM)
LCLC-97TM1 | 0.658 | 1.09 | 0.87 | 1.15 | 0.953 | 0.89 | 1 | 0.933 | 0.363 | 0.435 | 0.277 | 0.286 | 0.586 | 0.421 | 0.504 | 0.736 | 0.405
LCLC-103H |  |  |  |  | 0.688 | 0.798 | 0.787 | 0.748 | 0.951 | 1.02 | 1.04 | 1.05 | 0.999 | 1.12 | 0.981 | 1.01 | 1.06
LK-2 | 0.908 | 1.2 | 0.941 | 0.913 | 1.18 | 1.35 | 1.51 | 0.934 |  | 0.259 | 0.213 | 0.253 |  |  |  |  | 
LOU-NH91 |  | 0.872 | 0.778 | 0.78 | 0.742 | 0.904 | 0.97 | 0.918 |  | 0.738 | 0.734 | 0.783 | 0.492 | 0.52 | 0.514 | 0.381 | 0.51
NCI-H358 | 0.311 | 0.505 | 0.501 | 0.519 | 0.594 | 0.636 | 0.631 | 0.503 | 0.581 | 0.453 | 0.421 | 0.31 |  |  |  |  | 
